Several values for one entry are separate records, joined by “and”; a condition that tells them apart may be missing. Equal entries are not always repeated. Inconclusive results and toxic doses are left out. Rule for the calls: active = survival T/C of 150% or more; inactive = T/C below 125% in these data.
Test system: P388 leukemia ip, CD2F1 mice, survival T/C
Assay: NCI In Vivo Anticancer Drug Screen. Data for tumor model P388 Leukemia (intraperitoneal) in CD2F1 (CDF1) mice
Details: endpoint: median survival time, higher = longer survival
Procedure, shortened: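 Mice carrying the transplanted tumor received test compound or vehicle. Survival was recorded in each group, and the value is the treated-group measurement divided by that of the vehicle-treated control group.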

[1] = dose: 50.0 mg/kg/injection, schedule: Q01DX009 (ip), vehicle: saline with Tween-80
[2] = dose: 100.0 mg/kg/injection, schedule: Q01DX009 (ip), vehicle: saline with Tween-80
[3] = dose: 200.0 mg/kg/injection, schedule: Q01DX009 (ip), vehicle: saline with Tween-80
[4] = dose: 50.0 mg/kg/injection, schedule: Q01DX005 (ip), vehicle: Klucel (hydroxypropylcellulose) (HPC)
[5] = dose: 100.0 mg/kg/injection, schedule: Q01DX005 (ip), vehicle: Klucel (hydroxypropylcellulose) (HPC)
[6] = dose: 200.0 mg/kg/injection, schedule: Q01DX005 (ip), vehicle: Klucel (hydroxypropylcellulose) (HPC)
[7] = dose: 100.0 mg/kg/injection, schedule: Q04DX003 (ip), vehicle: saline with Tween-80
[8] = dose: 200.0 mg/kg/injection, schedule: Q04DX003 (ip), vehicle: saline with Tween-80
[9] = dose: 100.0 mg/kg/injection, schedule: Q04DX002 (ip), vehicle: Klucel (hydroxypropylcellulose) (HPC)
[10] = dose: 400.0 mg/kg/injection, schedule: Q04DX002 (ip), vehicle: Klucel (hydroxypropylcellulose) (HPC)
[11] = dose: 60.0 mg/kg/injection, schedule: Q01DX005 (ip), vehicle: Klucel (hydroxypropylcellulose) (HPC)
[12] = dose: 120.0 mg/kg/injection, schedule: Q01DX005 (ip), vehicle: Klucel (hydroxypropylcellulose) (HPC)
[13] = dose: 240.0 mg/kg/injection, schedule: Q01DX005 (ip), vehicle: Klucel (hydroxypropylcellulose) (HPC)
[14] = dose: 100.0 mg/kg/injection, schedule: Q01DX001 (ip), vehicle: Klucel (hydroxypropylcellulose) (HPC)
[15] = dose: 200.0 mg/kg/injection, schedule: Q01DX001 (ip), vehicle: Klucel (hydroxypropylcellulose) (HPC)

Measured: T/C

COc1ccc(CCC(=O)O)c(C(CC(=O)O)C(=O)O)c1OS(=O)(=O)c1ccc(C)cc1 (stereo not drawn)
inactive: [1] 94 % of control | [2] 105 % of control | [3] 97 % of control

O=C(Nc1ccc(N=C(Nc2ccccc2)c2ccccc2)cc1)c1ccc(C(=O)Nc2ccc(N=C(Nc3ccccc3)c3ccccc3)cc2)cc1
inactive: dose: 25.0 mg/kg/injection, schedule: Q01DX005 (ip), vehicle: Klucel (hydroxypropylcellulose) (HPC) 98 % of control | [4] 91 % of control | [5] 91 % of control | [6] 86 % of control

COc1ccc(C)c2c(NCCCCCCCCNc3c4ccccc4nc4c(OC)ccc(C)c34)c3ccccc3nc12
inactive: dose: 2.5 mg/kg/injection, schedule: Q01DX009 (ip), vehicle: water 100 % of control | dose: 5.0 mg/kg/injection, schedule: Q01DX009 (ip), vehicle: water 113 % of control | dose: 10.0 mg/kg/injection, schedule: Q01DX009 (ip), vehicle: water 105 % of control

CCCC(C#N)(CCCl)c1ccccc1 (stereo not drawn)
inactive: [7] 100 % of control | [8] 104 % of control | dose: 400.0 mg/kg/injection, schedule: Q04DX003 (ip), vehicle: saline with Tween-80 95 % of control

O=[N+]([O-])O.[Mn].c1ccc(/C2=c3\cc/c([n-]3)=C(\c3ccccc3)c3ccc([n-]3)/C(c3ccccc3)=c3/cc/c([n-]3)=C(\c3ccccc3)c3ccc2[n-]3)cc1
inactive: dose: 25.0 mg/kg/injection, schedule: Q04DX002 (ip), vehicle: saline with Tween-80 100 % of control | dose: 50.0 mg/kg/injection, schedule: Q04DX002 (ip), vehicle: saline with Tween-80 94 % of control | [9] 108 % of control | dose: 100.0 mg/kg/injection, schedule: Q04DX002 (ip), vehicle: saline with Tween-80 94 % of control | [10] 108 % of control

Oc1ccc(C(c2cc3c(cc2O)OCO3)N2CCN(C(c3ccc(O)cc3)c3cc4c(cc3O)OCO4)CC2)cc1 (stereo not drawn)
inactive: [11] 104 % of control | [12] 103 % of control | [13] 100 % of control

CSC1=NN(C(C)=O)C(c2ccc3ccccc3n2)S1 (stereo not drawn)
inactive: [4] 95 % of control | [5] 89 % of control | [6] 99 % of control

CC1(N)C(=O)NC(=O)c2cnccc21 (stereo not drawn)
inactive: dose: 100.0 mg/kg/injection, schedule: Q01DX001 (ip), vehicle: saline 104 % of control | dose: 200.0 mg/kg/injection, schedule: Q01DX001 (ip), vehicle: saline 107 % of control | dose: 400.0 mg/kg/injection, schedule: Q01DX001 (ip), vehicle: saline 97 % of control

CC(C)CC(=O)N(CCC#N)c1ncc([N+](=O)[O-])s1
inactive: [14] 110 % of control | [15] 98 % of control

CON/C=C(C#N)/C=C/C=Nc1ccc(S(=O)(=O)Nc2onc(C)c2C)cc1
inactive: [1] 100 % of control | [2] 92 % of control | [3] 98 % of control

Cc1ccc(-c2cs/c(=N\N=C3/CSC(=O)N3Cc3ccccc3)n2-c2cccc(C)c2)cc1
inactive: [9] 89 % of control | dose: 200.0 mg/kg/injection, schedule: Q04DX002 (ip), vehicle: Klucel (hydroxypropylcellulose) (HPC) 89 % of control | [10] 91 % of control

O=C(c1ccc(Cl)cc1)c1cc2ccccc2oc1=O
inactive: dose: 60.0 mg/kg/injection, schedule: Q01DX005 (ip), vehicle: saline with Tween-80 92 % of control | dose: 120.0 mg/kg/injection, schedule: Q01DX005 (ip), vehicle: saline with Tween-80 93 % of control | dose: 240.0 mg/kg/injection, schedule: Q01DX005 (ip), vehicle: saline with Tween-80 93 % of control

CNC(=O)OCc1c(C)oc(-c2ccc(Cl)c(Cl)c2)c1COC(=O)NC
inactive: dose: 25.0 mg/kg/injection, schedule: Q01DX009 (ip), vehicle: distilled water + Tween-80 102 % of control | dose: 50.0 mg/kg/injection, schedule: Q01DX009 (ip), vehicle: distilled water + Tween-80 97 % of control | dose: 100.0 mg/kg/injection, schedule: Q01DX009 (ip), vehicle: distilled water + Tween-80 97 % of control | dose: 200.0 mg/kg/injection, schedule: Q01DX009 (ip), vehicle: distilled water + Tween-80 91 % of control | dose: 400.0 mg/kg/injection, schedule: Q01DX009 (ip), vehicle: distilled water + Tween-80 90 % of control

Cc1ccc(S(=O)(=O)C(Br)CC(=O)c2ccccc2)cc1 (stereo not drawn)
inactive: dose: 100.0 mg/kg/injection, schedule: Q04DX002 (ip), vehicle: saline 100 % of control | dose: 200.0 mg/kg/injection, schedule: Q04DX002 (ip), vehicle: saline 101 % of control | dose: 400.0 mg/kg/injection, schedule: Q04DX002 (ip), vehicle: saline 109 % of control

CCCCCc1cc(O)c2c(c1)OC(C)(C)c1ccc(C)cc1-2
inactive: dose: 64.0 mg/kg/injection, schedule: Q01DX009 (ip), vehicle: saline 115 % of control | dose: 128.0 mg/kg/injection, schedule: Q01DX009 (ip), vehicle: saline 97 % of control | dose: 256.0 mg/kg/injection, schedule: Q01DX009 (ip), vehicle: saline 109 % of control | dose: 512.0 mg/kg/injection, schedule: Q01DX009 (ip), vehicle: saline 106 % of control

CCCCCCc1c(C#N)c(S)[nH]c(=S)c1C#N
inactive: dose: 12.5 mg/kg/injection, schedule: Q01DX009 (ip), vehicle: saline 95 % of control | dose: 25.0 mg/kg/injection, schedule: Q01DX009 (ip), vehicle: saline 106 % of control | dose: 50.0 mg/kg/injection, schedule: Q01DX009 (ip), vehicle: saline 106 % of control and 96 % of control

O=C1/C(=C/C=C/c2ccccc2)C(=S)SN1Cc1ccco1
inactive: dose: 50.0 mg/kg/injection, schedule: Q01DX009 (ip), vehicle: Klucel (hydroxypropylcellulose) (HPC) 96 % of control | dose: 100.0 mg/kg/injection, schedule: Q01DX009 (ip), vehicle: Klucel (hydroxypropylcellulose) (HPC) 97 % of control

O=C(CNC(=O)c1ccc(Cl)cc1)c1ccc(Br)cc1
inactive: dose: 12.5 mg/kg/injection, schedule: Q01DX005 (ip), vehicle: saline with Tween-80 94 % of control | dose: 25.0 mg/kg/injection, schedule: Q01DX005 (ip), vehicle: saline with Tween-80 92 % of control | dose: 50.0 mg/kg/injection, schedule: Q01DX005 (ip), vehicle: saline with Tween-80 92 % of control

CCCCCCC1NC(CCCCC)N2C(CCCCC)N12 (stereo not drawn)
inactive: dose: 50.0 mg/kg/injection, schedule: Q01DX001 (ip), vehicle: Klucel (hydroxypropylcellulose) (HPC) 101 % of control | [14] 103 % of control | [15] 95 % of control

CC(C)(O)C1OCC(C2CCC3(C)C4=CCC5C(C)(C)C(O)CCC5(C)C4CCC23C)CC1O (stereo not drawn)
inactive: dose: 2.5 mg/kg/injection, schedule: Q01DX009 (ip), vehicle: alcohol 98 % of control | dose: 5.0 mg/kg/injection, schedule: Q01DX009 (ip), vehicle: alcohol 101 % of control | dose: 10.0 mg/kg/injection, schedule: Q01DX009 (ip), vehicle: alcohol 100 % of control | dose: 20.0 mg/kg/injection, schedule: Q01DX009 (ip), vehicle: alcohol 99 % of control | dose: 40.0 mg/kg/injection, schedule: Q01DX009 (ip), vehicle: alcohol 110 % of control

COc1ccc(N=c2nc3n4c(c(Cl)cc(Cl)c4n2)NC(C(Cl)(Cl)Cl)=N3)cc1
inactive: dose: 60.0 mg/kg/injection, schedule: Q01DX005 (ip), vehicle: Klucel + Tween-80 93 % of control | dose: 120.0 mg/kg/injection, schedule: Q01DX005 (ip), vehicle: Klucel + Tween-80 92 % of control | dose: 240.0 mg/kg/injection, schedule: Q01DX005 (ip), vehicle: Klucel + Tween-80 96 % of control

CC(CN1C(=O)CCC1=O)N1C(=O)CCC1=O (stereo not drawn)
inactive: dose: 50.0 mg/kg/injection, schedule: Q01DX005 (ip), vehicle: saline 100 % of control | dose: 100.0 mg/kg/injection, schedule: Q01DX005 (ip), vehicle: saline 103 % of control | dose: 200.0 mg/kg/injection, schedule: Q01DX005 (ip), vehicle: saline 100 % of control

Fc1cccc(Cl)c1C(Nc1nccs1)Nc1nccs1
inactive: [11] 107 % of control | [12] 103 % of control | [13] 104 % of control

CC(=O)SCCCCl
inactive: dose: 50.0 mg/kg/injection, schedule: Q04DX003 (ip), vehicle: saline with Tween-80 100 % of control | [7] 109 % of control | [8] 109 % of control

Reference: PubChem BioAssay AID330 (DTP/NCI, 2004)
